The record followed here is paper PMC7614683, “A small molecule PI3Kα activator for cardioprotection and neuroregeneration” (Nature, 2023).

Each structure is given as a SMILES string.

What all share (experiment): SelectScreen LanthaScreen Binding
Settings in all cases: 1000 nM
On the technique in general: TR-FRET usually uses a lanthanide donor and a delayed reading to cut background.

One experiment has as its target CDK2/cyclin E1 (Homo sapiens, UniProt P24941). The protocol:
(§1) 133 protein kinases and 7 lipid kinases were counterscreened, with 1938 used at 1 μM, using the Adapta, Lantha and Z-LYTE assays (SelectScreen Kinase Profiling Service; Thermofisher – experimental details of these assays can be found here: https://www.thermofisher.com/uk/en/home/industrial/pharma-biopharma/drug-discovery-development/target-and-lead-identification-and-validation/kinasebiology/kinase-activity-assays.html. The tree represention in KinMap[59] generated courtesy of Cell Signaling Technology, Inc. (www.cellsignal.com). mTORC1 (mTOR/RAPTOR/LST8) protein complex and ATM kinase and substrates were produced as previously described[57],[60]. Screening of 1938 was conducted using SuperSep Phos-Tag 50 μmol/l 100 x 100 x 6.6 mm 17-well (192-18001/199-18011) gels. For ATM assays, 100 nM ATM was incubated for 30 min at 30°C with 5 μM GST-p53 and 1 mM ATP, in the absence or presence of 200 μM 1938 in ATM Kinase Buffer (50 mM HEPES pH 7.5, 100 mM NaCl, 10% glycerol, 2 mM […], 5 mM MgCl2). As a positive control for ATM activation, the same reaction was carried out with 100 nM ATM/5 μM GST-p53/1 mM ATP in the presence of 100 nM Mre11-Rad50-Nbs1 (MRN) complex, a known activator of ATM[61]. For mTORC1 assays, 50 nM mTORC1 complex (mTOR/LST8/RAPTOR) was incubated for 3 h at 30°C with 15 μM 4E-BP1, 10 mM MgCl2 and 250 μM ATP, in the absence or presence of 200 μM 1938. As a ‘positive’ control, a higher concentration (150 nM) of mTORC1 complex (mTOR/LST8/RAPTOR) was incubated for 3 h at 30°C with 15 μM 4E-BP1, 10 mM MgCl2 and 250 μM ATP. Kinase reactions were quenched by addition of SDS-PAGE Loading Buffer (as per manufacturer’s instructions) and freezing at -20°C before being run on the Phos-tag gels at 150 V for 90 min. Gels were then stained using InstantBlue™ Coomassie, and quantified using BioRad Image Lab Software. Kinase assays were carried out in triplicate.

For another experiment, the target named is CLK4 (Homo sapiens, UniProt Q9HAZ1). The protocol:
as §1

The target of experiment [1] is T1, MAP3K7/MAP3K7IP1 (TAK1-TAB1) (Homo sapiens, UniProt O43318).
T1 sequence (O43318 with tags, fused parts or gaps limits assumed): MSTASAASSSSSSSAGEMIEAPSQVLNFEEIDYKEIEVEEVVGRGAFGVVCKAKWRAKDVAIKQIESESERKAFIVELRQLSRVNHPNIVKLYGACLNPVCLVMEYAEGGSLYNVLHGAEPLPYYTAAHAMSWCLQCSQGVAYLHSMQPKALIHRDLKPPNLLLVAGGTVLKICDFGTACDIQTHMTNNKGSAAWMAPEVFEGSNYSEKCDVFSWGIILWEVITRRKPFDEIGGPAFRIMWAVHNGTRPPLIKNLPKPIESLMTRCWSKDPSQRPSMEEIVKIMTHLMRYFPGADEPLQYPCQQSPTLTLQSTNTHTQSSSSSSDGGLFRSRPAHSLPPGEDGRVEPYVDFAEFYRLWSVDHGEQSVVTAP
The protocol: as §1

The target of another experiment is T2, MAP4K3 (GLK) (Homo sapiens, UniProt Q8IVH8).
T2 sequence (Q8IVH8 1-894): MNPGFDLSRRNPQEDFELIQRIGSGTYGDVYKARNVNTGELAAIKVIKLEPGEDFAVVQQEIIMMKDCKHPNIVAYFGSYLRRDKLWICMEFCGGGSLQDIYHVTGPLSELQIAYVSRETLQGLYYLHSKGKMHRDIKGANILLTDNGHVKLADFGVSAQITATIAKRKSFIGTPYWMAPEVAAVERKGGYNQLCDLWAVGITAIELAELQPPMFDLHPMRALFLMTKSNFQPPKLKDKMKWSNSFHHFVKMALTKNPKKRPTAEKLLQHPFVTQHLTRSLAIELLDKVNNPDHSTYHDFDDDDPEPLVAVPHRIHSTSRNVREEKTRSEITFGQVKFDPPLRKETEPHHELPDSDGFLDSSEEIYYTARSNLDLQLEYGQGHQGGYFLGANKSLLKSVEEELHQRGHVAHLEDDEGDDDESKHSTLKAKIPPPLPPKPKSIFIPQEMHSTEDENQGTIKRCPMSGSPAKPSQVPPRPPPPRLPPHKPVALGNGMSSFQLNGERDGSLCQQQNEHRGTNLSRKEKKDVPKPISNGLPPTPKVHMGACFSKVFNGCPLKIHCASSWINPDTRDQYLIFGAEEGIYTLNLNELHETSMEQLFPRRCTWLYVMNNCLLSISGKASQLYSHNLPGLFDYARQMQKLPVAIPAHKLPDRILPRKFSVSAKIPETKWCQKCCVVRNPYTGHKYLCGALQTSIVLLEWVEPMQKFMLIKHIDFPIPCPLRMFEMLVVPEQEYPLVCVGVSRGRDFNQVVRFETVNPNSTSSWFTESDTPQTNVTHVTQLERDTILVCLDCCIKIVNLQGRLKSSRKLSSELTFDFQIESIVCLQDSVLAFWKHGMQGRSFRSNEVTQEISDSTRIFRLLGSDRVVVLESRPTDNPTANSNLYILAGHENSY
How it is done:
as §1

For a further experiment, the target named is RET V804M (Homo sapiens, UniProt P07949, V804M). How it is done: as §1
Sequence of RET V804M (P07949 29-1114 V804M): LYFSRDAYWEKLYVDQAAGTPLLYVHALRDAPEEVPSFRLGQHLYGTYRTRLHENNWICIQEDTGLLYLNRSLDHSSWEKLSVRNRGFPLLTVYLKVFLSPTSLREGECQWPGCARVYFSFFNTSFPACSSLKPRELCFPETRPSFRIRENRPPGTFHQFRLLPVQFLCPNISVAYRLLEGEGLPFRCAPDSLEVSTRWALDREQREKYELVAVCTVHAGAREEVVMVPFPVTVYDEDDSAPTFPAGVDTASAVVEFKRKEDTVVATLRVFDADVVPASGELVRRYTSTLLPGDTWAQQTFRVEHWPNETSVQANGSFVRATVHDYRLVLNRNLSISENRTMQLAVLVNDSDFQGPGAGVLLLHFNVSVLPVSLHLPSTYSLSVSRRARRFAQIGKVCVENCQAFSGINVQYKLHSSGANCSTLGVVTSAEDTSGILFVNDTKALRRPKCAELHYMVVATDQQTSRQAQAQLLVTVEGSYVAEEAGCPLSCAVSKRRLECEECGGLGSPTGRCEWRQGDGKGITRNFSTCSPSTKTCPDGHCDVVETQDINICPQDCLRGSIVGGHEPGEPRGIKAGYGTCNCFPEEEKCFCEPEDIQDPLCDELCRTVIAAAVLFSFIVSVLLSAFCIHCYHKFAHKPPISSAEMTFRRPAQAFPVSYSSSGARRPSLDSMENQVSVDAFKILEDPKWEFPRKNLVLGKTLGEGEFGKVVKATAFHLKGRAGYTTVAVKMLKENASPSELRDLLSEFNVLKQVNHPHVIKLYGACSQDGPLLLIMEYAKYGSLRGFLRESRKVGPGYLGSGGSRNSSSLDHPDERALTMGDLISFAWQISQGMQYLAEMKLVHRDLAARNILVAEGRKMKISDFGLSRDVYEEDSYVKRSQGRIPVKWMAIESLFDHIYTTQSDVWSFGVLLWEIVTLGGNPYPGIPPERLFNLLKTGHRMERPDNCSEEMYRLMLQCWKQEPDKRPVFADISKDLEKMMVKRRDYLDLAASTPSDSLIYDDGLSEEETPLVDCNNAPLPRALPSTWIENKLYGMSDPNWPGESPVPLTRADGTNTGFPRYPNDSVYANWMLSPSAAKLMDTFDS

Sequence of CLK4 (Q9HAZ1 whole entry): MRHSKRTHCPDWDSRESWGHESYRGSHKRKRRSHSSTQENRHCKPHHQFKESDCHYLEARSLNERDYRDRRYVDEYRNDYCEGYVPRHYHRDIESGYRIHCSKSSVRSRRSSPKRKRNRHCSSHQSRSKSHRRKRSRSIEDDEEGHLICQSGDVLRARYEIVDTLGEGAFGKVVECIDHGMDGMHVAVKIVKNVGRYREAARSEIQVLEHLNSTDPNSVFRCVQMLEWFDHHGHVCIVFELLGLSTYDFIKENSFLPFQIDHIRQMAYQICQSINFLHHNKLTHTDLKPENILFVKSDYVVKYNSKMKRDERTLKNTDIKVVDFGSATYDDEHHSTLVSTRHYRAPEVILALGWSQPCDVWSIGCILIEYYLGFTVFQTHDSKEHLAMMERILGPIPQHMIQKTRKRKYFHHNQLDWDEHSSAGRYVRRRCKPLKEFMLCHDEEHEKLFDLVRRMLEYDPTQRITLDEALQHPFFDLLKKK

On to `CCN1CCN(c2ccc(Nc3cc(Nc4cccc5c4N(C(C)=O)CC5)ccn3)cc2)CC1` [Compound 1938], for which the “% Displacement Point 1” value on CDK2/cyclin E1 is on record as 3%; on CLK4 it was 1.72%; in experiment [1], 1%; on MAP4K3 (GLK), -1.29%; at RET V804M, 1.24%. Moreover, the “% Displacement Point 2” value on CDK2/cyclin E1 is listed as -14%; at CLK4 it was 6.61%; in experiment [1] it was -0.557%; at MAP4K3 (GLK), 0.495%; on RET V804M it was -3%. The “% Displacement mean” value is -5.56% at CDK2/cyclin E1; 4% on CLK4; 0.201% in experiment [1]; -0.396% at MAP4K3 (GLK); -0.94% on RET V804M.
